Data reported in ChEMBL document CHEMBL1201862, “PubChem BioAssay data set” (2004).
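Results reflect a 48-hour exposure of cells in 96-well plates to compound at five concentrations. Abbreviation: GI50, concentration required for 50% inhibition of growth.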 Activity calls are given as the source filed them. Cut-off read from the data, not from the text of the source: active = GI50 up to about 1.1 µM and inactive = higher.

Assays:
Experiment in all cases: inhibition of tumour cell growth, NCI panel, 48 h
A549 = test system: A549
CCRF-CEM = test system: CCRF-CEM
HOP-62 = test system: HOP-62
HOP-92 = test system: HOP-92
KM12 = test system: KM12
LOX IMVI = test system: LOX IMVI
Malme-3M = test system: Malme-3M
NCI-H226 = test system: NCI-H226
OVCAR-5 = test system: OVCAR-5
RPMI-8226 = test system: RPMI-8226
SN12C = test system: SN12C
SR = test system: SR
TK-10 = test system: TK-10
U-251 = test system: U-251
CAKI-1 = test system: CAKI-1
HT-29 = test system: HT-29

Measured: GI50

CCOc1ccc(/N=N/c2ccc3oc(=O)c(/C(C)=N/NC(=O)CC(=O)Nc4cccc(OC)c4)cc3c2)cc1
inactive: A549 28.2 µM | CCRF-CEM 3.16 µM | HOP-62 17.9 µM | HOP-92 19.1 µM | KM12 20.8 µM | LOX IMVI 17.2 µM | Malme-3M 16.8 µM | NCI-H226 > 39.7 µM | OVCAR-5 > 46.6 µM | RPMI-8226 8.53 µM | SN12C 15.6 µM | SR 2.64 µM | TK-10 28.3 µM | U-251 10.6 µM

CCOP(=O)(Cc1ccc(CP(=O)(OCC)OCC)n1C)OCC
inactive: A549 > 100 µM | CAKI-1 > 100 µM | CCRF-CEM > 100 µM | HOP-62 > 100 µM | HOP-92 > 100 µM | HT-29 > 100 µM | KM12 > 100 µM | LOX IMVI > 100 µM | Malme-3M > 100 µM | OVCAR-5 > 100 µM | RPMI-8226 > 100 µM | SN12C > 100 µM | TK-10 > 100 µM | U-251 > 100 µM

O=S(=O)(OI(OI(OS(=O)(=O)C(F)(F)F)c1ccccc1)c1ccccc1)C(F)(F)F
inactive: A549 46.8 µM | CAKI-1 27.8 µM | CCRF-CEM 13.9 µM | HOP-62 90.8 µM | KM12 28.2 µM | LOX IMVI 20 µM | Malme-3M 11.7 µM | NCI-H226 58.6 µM | OVCAR-5 > 100 µM | RPMI-8226 11.6 µM | SN12C 49.8 µM | TK-10 > 100 µM | U-251 > 100 µM

Cc1ccc(C2=CC(=O)c3ccccc3C2=O)n1-c1ccccc1
inactive: A549 > 100 µM | CCRF-CEM 23 µM | HOP-62 > 100 µM | HT-29 > 100 µM | KM12 43.1 µM | LOX IMVI > 100 µM | NCI-H226 7.67 µM | RPMI-8226 36.7 µM | SN12C > 100 µM | TK-10 > 100 µM | U-251 46.7 µM

CN(C)c1ccc2c(NCCCCCCNc3ccnc4cc(N(C)C)ccc34)ccnc2c1
inactive: A549 > 100 µM | CAKI-1 42.6 µM | CCRF-CEM 12.7 µM | HOP-62 19.2 µM | HT-29 19.2 µM | KM12 8.26 µM | Malme-3M 2.85 µM | OVCAR-5 25.2 µM | SN12C 6.79 µM | SR 7.73 µM | TK-10 12.5 µM | U-251 5.32 µM

CN(C)/N=N/c1ccc(S(N)(=O)=O)cc1
inactive: A549 > 100 µM | CAKI-1 > 100 µM | CCRF-CEM 6.43 µM | HOP-62 > 100 µM | HOP-92 > 100 µM | HT-29 > 100 µM | KM12 > 100 µM | LOX IMVI > 100 µM | Malme-3M > 100 µM | NCI-H226 > 100 µM | OVCAR-5 > 100 µM | RPMI-8226 > 100 µM | SN12C > 100 µM | SR > 100 µM | TK-10 > 100 µM | U-251 > 100 µM

COc1c(C(=O)c2ccc([N+](=O)[O-])cc2)cc(C(C)(C)C)cc1C(C)(C)C
inactive: A549 31 µM | CAKI-1 41.6 µM | CCRF-CEM 26.7 µM | HOP-62 49.5 µM | HT-29 28.7 µM | KM12 16.9 µM | LOX IMVI 12.3 µM | Malme-3M 26.5 µM | OVCAR-5 13.4 µM | RPMI-8226 12.6 µM | SN12C 39 µM | SR 17.1 µM | TK-10 13.8 µM | U-251 19.1 µM

COc1cc2ccn3c4cc(OC)c(OC)cc4cc3c2cc1OC
inactive: A549 > 100 µM | CAKI-1 29.6 µM | CCRF-CEM > 100 µM | HOP-62 > 100 µM | HOP-92 > 100 µM | HT-29 > 100 µM | KM12 > 100 µM | Malme-3M > 100 µM | NCI-H226 > 100 µM | OVCAR-5 > 100 µM | RPMI-8226 5.6 µM | SN12C > 100 µM | SR > 100 µM | TK-10 > 100 µM | U-251 > 100 µM

CCCCC1(C)C=C/C(=C2/C(=O)O/C(=C\C(=O)O)C2=O)O1 (stereo unspecified)
inactive: A549 > 100 µM | CCRF-CEM > 100 µM | HOP-62 > 100 µM | HT-29 > 100 µM | KM12 > 100 µM | LOX IMVI > 100 µM | Malme-3M > 100 µM | NCI-H226 > 100 µM | OVCAR-5 > 100 µM | RPMI-8226 > 100 µM | SN12C > 100 µM | SR > 100 µM | TK-10 > 100 µM | U-251 > 100 µM

O=[N+]([O-])c1cccc(C2ON2C2CCCCC2)c1 (stereo unspecified)
inactive: A549 30.1 µM | CAKI-1 24.2 µM | CCRF-CEM 4.88 µM | HOP-62 31.1 µM | HOP-92 45.9 µM | HT-29 11.5 µM | KM12 8.81 µM | Malme-3M 22.8 µM | OVCAR-5 > 100 µM | RPMI-8226 2.94 µM | SN12C 18.3 µM | SR 2.4 µM | TK-10 30.3 µM | U-251 3.98 µM

CCOC(=O)/C(C#N)=C\C=C1/C=CN=C2NCCN21
inactive: A549 > 100 µM | CAKI-1 > 100 µM | CCRF-CEM > 100 µM | HOP-62 > 100 µM | HT-29 > 100 µM | KM12 > 100 µM | LOX IMVI > 100 µM | Malme-3M > 100 µM | NCI-H226 > 100 µM | RPMI-8226 > 100 µM | SN12C > 100 µM | SR > 100 µM | TK-10 > 100 µM | U-251 > 100 µM

CC(C)(C)[Si](C)(C)O/N=C\c1ccc(O[Si](C)(C)C(C)(C)C)cc1
inactive: A549 92.7 µM | CAKI-1 > 100 µM | CCRF-CEM 49.8 µM | HOP-62 > 100 µM | HT-29 64.4 µM | KM12 > 100 µM | LOX IMVI 21.3 µM | Malme-3M > 100 µM | OVCAR-5 44.1 µM | RPMI-8226 57.5 µM | SN12C 61.2 µM | TK-10 > 100 µM | U-251 25.2 µM

C[C@@H]1OC(=O)N2CCCC(=C3SCCCS3)C12 (stereo partly specified)
inactive: A549 78.5 µM | CCRF-CEM 46.6 µM | HOP-92 29.6 µM | HT-29 70.1 µM | KM12 60.3 µM | LOX IMVI 94 µM | Malme-3M > 100 µM | NCI-H226 44.9 µM | OVCAR-5 > 100 µM | RPMI-8226 36.9 µM | SN12C > 100 µM | TK-10 > 100 µM | U-251 > 100 µM

Cc1cccc(C)c1CO
inactive: A549 > 100 µM | CAKI-1 > 100 µM | CCRF-CEM > 100 µM | HOP-62 > 100 µM | HOP-92 > 100 µM | HT-29 > 100 µM | KM12 > 100 µM | LOX IMVI > 100 µM | Malme-3M > 100 µM | NCI-H226 > 100 µM | OVCAR-5 > 100 µM | RPMI-8226 > 100 µM | SN12C > 100 µM | SR > 100 µM | U-251 > 100 µM

OCc1c[te]c(-c2ccccc2)c1
inactive: A549 63.2 µM | CAKI-1 47.4 µM | CCRF-CEM 17.5 µM | HOP-62 32.2 µM | HT-29 > 10 µM | KM12 80.5 µM | Malme-3M > 100 µM | NCI-H226 24.9 µM | OVCAR-5 > 100 µM | RPMI-8226 24 µM | SN12C 16 µM | TK-10 > 100 µM | U-251 34.6 µM

C(=N\Nc1ccccc1)/c1nc2ccccc2nc1/C=N/Nc1ccccc1
inactive: A549 14.3 µM | CAKI-1 7.71 µM | CCRF-CEM 23.6 µM | HOP-62 15.9 µM | HOP-92 17.5 µM | HT-29 10.8 µM | KM12 13 µM | LOX IMVI 9.25 µM | Malme-3M 24.9 µM | NCI-H226 18 µM | OVCAR-5 27 µM | SN12C 16.2 µM | SR 19.9 µM | TK-10 15.8 µM

COc1cc(C2C(C(=O)Nc3ccccc3)=C(C)NC(C)=C2C(=O)Nc2ccccc2)ccc1O
inactive: A549 40.6 µM | HOP-62 > 100 µM | HOP-92 19.3 µM | HT-29 18.7 µM | KM12 31 µM | LOX IMVI > 10 µM | Malme-3M 41.2 µM | NCI-H226 49.3 µM | OVCAR-5 > 100 µM | RPMI-8226 26.4 µM | SN12C 39.5 µM | SR 25.9 µM | TK-10 > 100 µM | U-251 48.9 µM

O=C1C=CC(=O)c2cc(Sc3ccccc3)c(=O)c(Sc3ccccc3)cc21
inactive: A549 56.5 µM | CAKI-1 > 100 µM | CCRF-CEM 17.3 µM | HOP-62 > 100 µM | HOP-92 18.9 µM | HT-29 > 100 µM | KM12 > 100 µM | LOX IMVI > 100 µM | NCI-H226 > 100 µM | RPMI-8226 37.3 µM | SN12C > 100 µM | SR 25.5 µM | TK-10 64.3 µM | U-251 46.3 µM

CN(C)c1ccc(-c2cc(O)c3cc4c(cc3n2)OCO4)cc1
inactive: A549 > 100 µM | CCRF-CEM > 100 µM | HOP-62 73.5 µM | HT-29 > 100 µM | LOX IMVI > 100 µM | Malme-3M > 100 µM | NCI-H226 > 100 µM | RPMI-8226 > 100 µM | SN12C > 100 µM | SR > 100 µM | TK-10 > 100 µM | U-251 > 100 µM

C=CCC1(CC)C(=O)NC(=O)NC1=O [ETALLOBARBITAL]
inactive: A549 > 100 µM | CCRF-CEM > 100 µM | HOP-62 > 100 µM | KM12 > 100 µM | LOX IMVI > 100 µM | Malme-3M > 100 µM | NCI-H226 > 100 µM | RPMI-8226 > 100 µM | SN12C > 100 µM | SR > 100 µM | TK-10 > 100 µM | U-251 > 100 µM
